Measured values: PMC7136958, “Targeting the pregnane X receptor using microbial metabolite mimicry” (EMBO Molecular Medicine, 2020)
Values joined by “and” are separate entries in the source; they are usually repeats but may differ in a detail not shown here. Equal values may be shown once. Marks after values point to notes of the source that are not given here.

Tests used:
NF-κB = assay: TNF-α-induced NF-κB reporter assay in LS180 cells with or without PXR co-transfection; format: cell-based, human
Protocol: NF‐κB reporter assays were performed using LS180 cells. […] Thereafter, cells were lysed, and Nano luciferase activity was measured using a Tecan Infinite M200 Pro plate reader (Schoeller Instruments, Czech Republic).

FXR = target: T1, FXR (Homo sapiens, UniProt Q96RI1); assay: hFXR TR-FRET (LanthaScreen FXR Coactivator Assay); format: biochemical; settings: 1 nM to 25 µM
T1 construct: purchased Invitrogen PV4833
T1 sequence (Q96RI1 211-486 limits assumed): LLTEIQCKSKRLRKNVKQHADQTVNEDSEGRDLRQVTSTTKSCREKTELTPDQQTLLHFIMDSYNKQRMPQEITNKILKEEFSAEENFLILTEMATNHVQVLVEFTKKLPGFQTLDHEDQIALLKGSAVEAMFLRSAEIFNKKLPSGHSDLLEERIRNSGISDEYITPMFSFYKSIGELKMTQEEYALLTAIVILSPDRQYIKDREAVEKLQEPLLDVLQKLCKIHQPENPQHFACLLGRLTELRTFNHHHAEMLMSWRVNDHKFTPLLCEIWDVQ
Protocol: volume of 20 µl in 384-well black plates, with concentrations of tested compounds in the range from 1
nm, on Infinite F200 microplate reader (Tecan Group Ltd, Switzerland).
All experiments were done in tetraplicates and as two independent experiments. Final EC50 values were obtained by processing the data with GraphPad Prism 6 using standard curve interpolation (sigmoidal, 4PL, variable slope).

S. typhimurium 14038 [1] = assay: Salmonella invasion (gentamicin protection assay) in Caco-2 monolayers; format: cell-based, Salmonella typhimurium; settings: for Salmonella CFU/ml: Caco-2 cells, triplicate
Protocol: (§1) FKK compounds were tested for their ability to prevent Salmonella invasion in vitro in non‐inflamed and inflamed cell cultures. Overnight cultures of S. typhimurium 14038 were diluted to OD600 0.01 and injected into with HIOs or immersed over Caco‐2 monolayers for 1 h at 37°C. The invasive ability of Salmonella was assessed using the gentamicin protection assay (Gagnon et al, 2013). Bacterial adhesion scenarios to the Caco‐2 surface were set up as described above. Non‐adhered bacteria were removed by washing twice in PBS, followed by incubation with 1 ml gentamicin (150 μg/ml in DMEM) for 1 h at 37°C to kill the adhered extracellular bacteria. Dead bacteria were removed by washing twice in PBS, followed by incubation with 500 μl 0.1% Triton X‐100 for 15 min at 37°C to lyse the HIOs and Caco‐2, and release the intracellular (invaded) bacteria. Serial fold dilutions and plating were then employed to determine CFU/ml. We normalized to total protein using Bradford assay.

[2] = tested on: PXR occupancy of CYP3A4 and MDR1 promoter; assay: Chromatin immunoprecipitation (ChIP) in PXR-transfected LS174T cells; settings: 10 μM; relative to DMSO = 1; each column a repeat experiment (Fig 1d)
Protocol: LS174T cells were transfected with pSG5‐PXR (2 μg/plate/1 × 10^7 cells). […] Briefly, cells were chemically cross‐linked with formaldehyde in culture media for 15 min at room temperature. […] Cells were rinsed twice with cold PBS (phosphate‐buffered saline) (pH 7.5) and scraped in PBS supplemented with PIC (protease inhibitor cocktail).
Cell pellets were collected and immediately resuspended in immunoprecipitation (IP) buffer (150 mM NaCl (sodium chloride), 50 mM Tris–HCl at pH 7.5, 5 mM EDTA (ethylenediaminetetraacetic acid), 0.5% NP‐40, 1% Triton X‐100). The nuclei were centrifuged at 12,000 × g for 1 min and resuspended in fresh IP buffer. Chromatin was sheared by sonication to an average size of 0.2‐0.9 kb. Lysates were cleared by centrifugation at 12,000 × g for 10 min. […] 10% (wt/vol) Chelex 100 was added to the beads followed by boiling of the suspension and centrifugation at 12,000 × g for 1 min to obtain chromatin.
Purified chromatin DNA was used to perform RT–qPCR. […] Data were analyzed using SDS 2.2.1 program (ABI Biotechnology).

[3] = tested on: CYP1A1, CYP3A4, MDR1 mRNA in HepaRG cells
Protocol: Caco‐2 cells were purchased from ATCC, and authenticity was validated by multiplexed STR DNA (short tandem repeat deoxyribonucleic acid) profiling performed by Genetica. […] Cells were maintained at 37°C and 5% CO2 in a humidified incubator. […] Three HepaRG™‐derived cell lines, including 5F Clone control cells, and cells with targeted functional PXR and AhR gene knockouts, PXR‐KO and AhR‐KO, respectively, were purchased from Sigma (Czech Republic). Cells were handled according to the manufacturer's protocol. Human hepatocytes were purchased from Biopredic International (France) and Triangle Research Labs, LLC, Lonza (USA). Cultures were maintained in serum‐free medium at 37°C and 5% CO2 in a humidified incubator.
The measurements were performed in triplicate.

hPXR = target: T2, hPXR (Homo sapiens, UniProt O75469); assay: hPXR TR-FRET competitive binding assay (LanthaScreen); settings: for 520/495 TR-FRET ratio: replicate wells; for TR-FRET signal (Fig 1e): each column a repeat
T2 sequence (O75469 111-434 limits assumed): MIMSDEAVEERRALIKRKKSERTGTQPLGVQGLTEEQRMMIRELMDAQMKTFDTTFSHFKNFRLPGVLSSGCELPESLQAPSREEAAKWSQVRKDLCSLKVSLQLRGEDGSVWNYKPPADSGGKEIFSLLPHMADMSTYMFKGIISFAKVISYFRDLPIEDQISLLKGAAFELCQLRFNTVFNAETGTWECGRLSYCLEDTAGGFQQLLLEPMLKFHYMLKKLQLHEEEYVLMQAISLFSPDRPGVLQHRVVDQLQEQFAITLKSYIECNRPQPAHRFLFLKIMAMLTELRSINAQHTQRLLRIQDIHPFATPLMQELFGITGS
Protocol: All PXR‐binding assays were performed as two independent experiments, each with a minimum of four replicates. Final IC50 was obtained by processing the data with GraphPad Prism 6 using standard curve interpolation (sigmoidal, 4PL, variable slope).

[4] = tested on: TLR4, CYP3A4, MDR1 mRNA in Caco-2 cells; assay: RT-qPCR of TLR4, CYP3A4, MDR1 mRNA in PXR-transfected Caco-2 cells; format: cell-based, human; settings: 10 μM
Protocol: RT–qPCR was performed using Thermo Fisher PowerUp SYBR Green Master Mix (# A25742) and Thermo Fisher qPCR 7900HT. Each sample was repeated in quadruplicate and normalized to internal control, GAPDH. The entire experiment was repeated at least two separate times. The primer sequences are noted in Table 2.

S. typhimurium 14038 [5] = assay: Salmonella invasion in iPSC-derived human intestinal organoids; format: cell-based, Salmonella typhimurium; settings: for Salmonella CFU/ml: HIO, triplicate
Protocol: as §1

[6] = NFkB transfected LS180 cells, 8th pass, EXP1, 0,1 uM + TNFa 5 ng/ml
[7] = NFkB transfected LS180 cells, 8th pass, EXP1, 1 uM + TNFa 5 ng/ml
[8] = NFkB transfected LS180 cells, 8th pass, EXP1, 10 uM + TNFa 5 ng/ml
[9] = NFkB transfected LS180 cells, 8th pass, EXP1, 25 uM + TNFa 5 ng/ml
[10] = NFkB transfected LS180 cells, 13th pass, EXP2, 0,1 uM + TNFa 5 ng/ml
[11] = NFkB transfected LS180 cells, 13th pass, EXP2, 1 uM + TNFa 5 ng/ml
[12] = NFkB transfected LS180 cells, 13th pass, EXP2, 10 uM + TNFa 5 ng/ml
[13] = NFkB transfected LS180 cells, 13th pass, EXP2, 25 uM + TNFa 5 ng/ml
[14] = NFkB+PXR transfected LS180 cells, 8th pass, EXP1, 0,1 uM + TNFa 5 ng/ml
[15] = NFkB+PXR transfected LS180 cells, 8th pass, EXP1, 1 uM + TNFa 5 ng/ml
[16] = NFkB+PXR transfected LS180 cells, 8th pass, EXP1, 10 uM + TNFa 5 ng/ml
[17] = NFkB+PXR transfected LS180 cells, 8th pass, EXP1, 25 uM + TNFa 5 ng/ml
[18] = NFkB+PXR transfected LS180 cells, 13th pass, EXP2, 0,1 uM + TNFa 5 ng/ml
[19] = NFkB+PXR transfected LS180 cells, 13th pass, EXP2, 1 uM + TNFa 5 ng/ml
[20] = NFkB+PXR transfected LS180 cells, 13th pass, EXP2, 10 uM + TNFa 5 ng/ml
[21] = NFkB+PXR transfected LS180 cells, 13th pass, EXP2, 25 uM + TNFa 5 ng/ml
[22] = compound 10µm, no cytokines, 12 hr
[23] = cytokines + compound 10µm, 12 hr
[24] = cytokines + compound 25µm, 12 hr

O=C(c1ccncc1)c1cc2ccccc2n1S(=O)(=O)c1ccccc1 [FKK5, (1-(phenylsulfonyl)-1H-indol-2-yl)(pyridin-4-yl)methanone]
TNF-α-induced NF-κB reporter activity (NF-κB; 0.1 to 25 μM, PXR-untransfected and PXR-transfected cells): significantly reduced | NFkB reporter luminescence, aver (NF-κB; [6]): 154648.3 | NFkB reporter, % max (NF-κB; [6]): 100.0% | NFkB reporter luminescence, aver (NF-κB; [7]): 174112.0 | NFkB reporter, % max (NF-κB; [7]): 112.6% | NFkB reporter luminescence, aver (NF-κB; [8]): 177548.0 | NFkB reporter, % max (NF-κB; [8]): 114.8% | NFkB reporter luminescence, aver (NF-κB; [9]): 128563.8 | NFkB reporter, % max (NF-κB; [9]): 83.1% | NFkB reporter luminescence, aver (NF-κB; [10]): 96416.5 | NFkB reporter, % max (NF-κB; [10]): 100.0% | NFkB reporter luminescence, aver (NF-κB; [11]): 100061.8 | NFkB reporter, % max (NF-κB; [11]): 103.8% | NFkB reporter luminescence, aver (NF-κB; [12]): 94755.5 | NFkB reporter, % max (NF-κB; [12]): 98.3% | NFkB reporter luminescence, aver (NF-κB; [13]): 73575.7 | NFkB reporter, % max (NF-κB; [13]): 76.3% | NFkB reporter luminescence, aver (NF-κB; [14]): 119827.8 | NFkB reporter, % max (NF-κB; [14]): 100.0% | NFkB reporter luminescence, aver (NF-κB; [15]): 119180.5 | NFkB reporter, % max (NF-κB; [15]): 99.5% | NFkB reporter luminescence, aver (NF-κB; [16]): 105570.7 | NFkB reporter, % max (NF-κB; [16]): 88.1% | NFkB reporter luminescence, aver (NF-κB; [17]): 87454.8 | NFkB reporter, % max (NF-κB; [17]): 73.0% | NFkB reporter luminescence, aver (NF-κB; [18]): 54048.0 | NFkB reporter, % max (NF-κB; [18]): 100.0% | NFkB reporter luminescence, aver (NF-κB; [19]): 44601.5 | NFkB reporter, % max (NF-κB; [19]): 82.5% | NFkB reporter luminescence, aver (NF-κB; [20]): 31230.0 | NFkB reporter, % max (NF-κB; [20]): 57.8% | NFkB reporter luminescence, aver (NF-κB; [21]): 30160.0 | NFkB reporter, % max (NF-κB; [21]): 55.8% | FXR ligand agonist activity (FXR): did not observe any significant ligand agonist activity | cytokine-induced salmonella invasion (S. typhimurium 14038 [1]; 10 and 25 μM, vs cytokines only): significantly decreased | Salmonella CFU/ml (S. typhimurium 14038 [1]; compound 10µm, no cytokines, 6 hr): 5980 CFU/ml and 4820 CFU/ml and 5870 CFU/ml | Salmonella CFU/ml (S. typhimurium 14038 [1]; [22]): 5920 CFU/ml and 4240 CFU/ml and 5520 CFU/ml | Salmonella CFU/ml (S. typhimurium 14038 [1]; compound 25µm, no cytokines, 6 hr): 4940 CFU/ml and 4950 CFU/ml and 4400 CFU/ml | Salmonella CFU/ml (S. typhimurium 14038 [1]; cytokines + compound 10µm, 6 hr): 5800 CFU/ml and 5710 CFU/ml and 4100 CFU/ml | Salmonella CFU/ml (S. typhimurium 14038 [1]; [23]): 2240 CFU/ml and 4480 CFU/ml and 4320 CFU/ml | Salmonella CFU/ml (S. typhimurium 14038 [1]; cytokines + compound 25µm, 6 hr): 3700 CFU/ml and 3900 CFU/ml and 3270 CFU/ml | Salmonella CFU/ml (S. typhimurium 14038 [1]; [24]): 3040 CFU/ml and 3240 CFU/ml and 2560 CFU/ml | salmonella invasion, compound alone (S. typhimurium 14038 [1]; no cytokines): No significant effect | MDR1 Fold Expression (2-ΔΔCt) [2]: 3.894 and 3.803 and 2.576 and 4.071 | CYP1A1 mRNA induction [3]: did not induce | CYP3A4 mRNA induction [3]: HepaRG™ AhR‐KO cells | CYP1A1 (1A1) mRNA, fold to C ([3]; human, 24 h): 0.81 fold | CYP3A4 (3A4) mRNA, fold to C ([3]; human, 24 h): 1.92 fold | MDR1 mRNA fold to C ([3]; human, 24 h): 1.03 fold | MDR-1 mRNA fold to C ([3]; human, 24 h): 1.25 fold | MDR-1 mRNA, fold to C ([3]; human, 24 h): 0.96 fold | 520/495 TR-FRET ratio (hPXR; 0.001 uM): 0.6965 and 0.4501 and 0.6299 and 0.6424 | 520/495 TR-FRET ratio (hPXR; 0.005 uM): 0.7274 and 0.6833 and 0.7094 and 0.6960 | 520/495 TR-FRET ratio (hPXR; 0.01 uM): 0.5474 and 0.5649 and 0.4572 and 0.5311 | 520/495 TR-FRET ratio (hPXR; 0.05 uM): 0.6957 and 0.6419 and 0.6716 and 0.6881 | 520/495 TR-FRET ratio (hPXR; 0.1 uM): 0.6678 and 0.6931 and 0.6595 and 0.6666 | 520/495 TR-FRET ratio (hPXR; 0.5 uM): 0.6903 and 0.6366 and 0.6178 and 0.6056 | 520/495 TR-FRET ratio (hPXR; 1 uM): 0.6447 and 0.5990 and 0.6565 and 0.5995 | 520/495 TR-FRET ratio (hPXR; 5 uM): 0.4264 and 0.3946 and 0.3906 and 0.3944 | 520/495 TR-FRET ratio (hPXR; 10 uM): 0.2760 and 0.2201 and 0.3383 and 0.4401 | 520/495 TR-FRET ratio (hPXR; 25 uM): 0.2211 and 0.2334 and 0.2644 and 0.2449 | TR-FRET signal (Fig 1e) (hPXR; Drug Conc 5 nM): 0.7094 and 0.696 and 0.7274 and 0.6833 | TR-FRET signal (Fig 1e) (hPXR; Drug Conc 10 nM): 0.4572* and 0.5311* and 0.5474* and 0.5649* | TR-FRET signal (Fig 1e) (hPXR; Drug Conc 1 uM): 0.5995 and 0.6565 and 0.599 and 0.6447 | TR-FRET signal (Fig 1e) (hPXR; Drug Conc 5 uM): 0.3906 and 0.3944 and 0.4264 and 0.3946 | TR-FRET signal (Fig 1e) (hPXR; Drug Conc 25 uM): 0.2644 and 0.2449 and 0.2211 and 0.2334 | TR-FRET signal (Fig 1e) (hPXR; Drug Conc 2,5 uM): 0.4667 and 0.4734 and 0.4777 and 0.4842 | CYP3A4 mRNA expression ([4]; 24 h): 3.7 fold | MDR1 mRNA expression (Fold Change) ([4]; 24 h): 5.12 fold | TLR4 mRNA expression ([4]; 24 h): 0.39 fold | CYP3A4 Mean Fold expression ([4]; DMSO = 1): 3.7 | MDR1 Mean Fold expression ([4]; DMSO = 1): 5.12 | hTLR4 Mean Fold expression ([4]; DMSO = 1): 0.39 | salmonella invasion vs cytokines alone (S. typhimurium 14038 [5]; 2, 4, 6, 12 h): significantly reduced | basal salmonella invasion (S. typhimurium 14038 [5]; 10 and 25 μM): no significant effect | Salmonella CFU/ml (S. typhimurium 14038 [5]; compound 10µm, no cytokines, 4 hr): 557 CFU/ml and 514 CFU/ml and 578 CFU/ml | Salmonella CFU/ml (S. typhimurium 14038 [5]; [22]): 447 CFU/ml and 508 CFU/ml and 480 CFU/ml | Salmonella CFU/ml (S. typhimurium 14038 [5]; [23]): 459 CFU/ml and 469 CFU/ml and 548 CFU/ml | Salmonella CFU/ml (S. typhimurium 14038 [5]; [24]): 474 CFU/ml and 339 CFU/ml and 439 CFU/ml
